# “Also recorded” adds a separate entry of the source.
# Columns and labels:
# [1] = tested on: nicotinic receptors in brain; format: binding, mouse
# [2] = tested on: nicotinic receptors of striatum membrane preparations; format: binding, mouse
# [3] = tested on: nAChRs containing the α6 subunit (brain sections); format: binding, mouse
# [4] = tested on: nicotinic acetylcholine receptors (nAChR) of striatal synaptosomes; format: biochemical, mouse
# cFos expression = conditions: mouse, in vivo
compound,measurement,setting,value
O=c1cccc2n1C[C@@H]1CNC[C@H]2C1 [cytisine],number of sites with high affinity for the ligand,[1],reduction; also recorded: no other difference could be detected
Clc1ccc(C2CC3CCC2N3)cn1 (stereo not drawn) [epibatidine],total number of epibatidine sites,[2],could not show a reduction
same,number of sites with high affinity for the ligand,[1],reduction; also recorded: no other difference could be detected
α-Conotoxin MII [αCtxMII],sites sensitive to αCtxMII as share of the total number of epibatidine sites,[2],20%
same,sites with high and low affinity for αCtxMII,[2],total disappearance
same,binding sites on brain sections,[3],presence of binding sites in three major anatomical systems
same,high affinity binding sites for the toxin,[3],complete disappearance
same,DA release peak induced by nicotine above the basal level in presence of αCtxMII,[4],50%
α-bungarotoxin,ligand bond (distribution of binding sites) in mutants versus Wt,[1],not modified
CN1CCCC1c1cccnc1 (stereo not drawn) [nicotine],number of sites with high affinity for the ligand,[1],reduction; also recorded: no other difference could be detected
same,activation of cFos expression in response to nicotine,cFos expression,absence of activation
same,change in the affinity of the dopamine release response to nicotine (dose-response curve),[4],loss of affinity of an order of magnitude; also recorded: drop of one order of magnitude
same,dopamine release peak induced by nicotine,[4],50%
same,effect of nicotine on dopamine release,[4],completely absent
same,increase in dopamine release over the basal level,[4],about 100%
